Data reported in ChEMBL document CHEMBL3046619, “Peroxidizing Phytotoxicities of 1, 2-Dialkyl-1, 2, 4-triazolidines and 3, 4-Dialkyl-1, 3, 4-thiadiazolidines” (J Pestic Sci, 1997).

Biological target: T1, Protoporphyrinogen IX oxidase (Zea mays, UniProt Q9FYV8)
T1 sequence (Q9FYV8 whole entry): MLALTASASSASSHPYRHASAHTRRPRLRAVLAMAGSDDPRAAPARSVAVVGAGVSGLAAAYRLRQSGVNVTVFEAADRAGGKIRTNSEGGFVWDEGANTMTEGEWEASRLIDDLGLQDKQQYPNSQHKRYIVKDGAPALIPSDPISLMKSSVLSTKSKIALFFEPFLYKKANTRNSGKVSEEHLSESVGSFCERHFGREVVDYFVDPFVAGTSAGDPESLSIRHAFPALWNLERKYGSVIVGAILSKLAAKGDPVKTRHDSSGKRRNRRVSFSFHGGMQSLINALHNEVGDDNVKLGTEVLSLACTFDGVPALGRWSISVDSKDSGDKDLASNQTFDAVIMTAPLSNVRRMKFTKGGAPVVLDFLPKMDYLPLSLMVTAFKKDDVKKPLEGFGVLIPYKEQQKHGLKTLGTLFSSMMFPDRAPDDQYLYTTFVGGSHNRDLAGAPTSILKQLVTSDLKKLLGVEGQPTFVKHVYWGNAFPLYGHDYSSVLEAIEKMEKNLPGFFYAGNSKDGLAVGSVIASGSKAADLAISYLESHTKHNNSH
Experiment: Inhibition of Zea mays (maize) protoporphyrinogen IX oxidase
Settings: read-out: pI50 (converted)

IC50	Compound
3090 nM	Cn1c(=S)s/c(=N\c2ccc(Br)cc2)n1C
36300 nM	CCn1c(=O)n(-c2ccc(Br)cc2)c(=O)n1CC
72400 nM	O=c1[nH][nH]c(=S)n1-c1ccc(Br)cc1
34.7 nM	S=c1n(-c2ccc(Br)cc2)c(=S)n2n1CCC2
4270 nM	CCn1c(=S)s/c(=N\c2ccc(Br)cc2)n1CC
110 nM	Cn1c(=S)n(-c2ccc(Br)cc2)c(=S)n1C
24500 nM	CCCn1c(=O)n(-c2ccc(Br)cc2)c(=S)n1CCC
12900 nM	Cn1c(=O)n(-c2ccc(Br)cc2)c(=O)n1C
10 nM	S=c1n(-c2ccc(Br)cc2)c(=S)n2n1CCCC2
8710 nM	CCn1c(=O)s/c(=N\c2ccc(Br)cc2)n1CC
3720 nM	Cn1c(=O)s/c(=N\c2ccc(Br)cc2)n1C
129 nM	S=c1n(-c2ccc(Br)cc2)c(=S)n2n1CCCCC2
1380 nM	CCn1c(=S)n(-c2ccc(Br)cc2)c(=S)n1CC
832 nM	CCn1c(=O)n(-c2ccc(Br)cc2)c(=S)n1CC
282 nM	Cn1c(=O)n(-c2ccc(Br)cc2)c(=S)n1C

Compound	IC50
O=C1C2=C(CCCC2)C(=O)N1c1ccc(Cl)cc1 [CHLOROPHTHALIUM]	50.1 nM
